Results as given in article PMC11761228, “Cinnamic Acid Compounds (p-Coumaric, Ferulic, and p-Methoxycinnamic Acid) as Effective Antibacterial Agents Against Colistin-Resistant Acinetobacter baumannii” (Antibiotics, 2025).
Values after ≈ are worked out from the molar mass of the structure shown.

How the values were obtained:
[1] = system: COLR-Ab isolates; assay: BD Phoenix100 automated antibiotic susceptibility testing; type: cell-based, Acinetobacter baumannii; set-up: key to Susceptibility category: Resistant; Intermediate; Susceptible; settings: for MIC: Acinetobacter baumannii; for Susceptibility category: CLSI criteria
Experimental: Five COLR-Ab strains isolated from various clinical specimens were obtained between 2016 and 2017 from the Microbiology Department of the Central Laboratory of Akdeniz University Hospital, Antalya, Turkey. All isolates were isolated from tracheal samples obtained from patients hospitalized in the intensive care unit. The stock solutions of A. baumannii strains were cultivated in blood agar (Becton Dickinson, Franklin Lakes, NJ, USA) at 35 ± 2 °C for 18–24 h. Identification of the colonies was confirmed using Matrix-Assisted Laser Desorption/Ionization Time-of-Flight (MALDI-TOF) mass spectroscopy (Bruker Daltonics, Bremen, Germany). […] The automated system was evaluated according to the criteria of the CLSI. […] E. coli NCTC 13846 COL was used as a quality control strain in broth dilution method to verify the MIC values. The isolates were stored at −80 °C until use and sub-cultured on blood agar for in vitro testing.

[2] = system: A. baumannii isolates; settings: A. baumannii isolates, combination with COL; cited from earlier work
[3] = system: biofilm formation of COLR-Ab isolates; assay: Antibiofilm activity, microtiter plate-based crystal violet technique; type: cell-based, Acinetobacter baumannii; settings: all COL doses except 1 μg/mL for COLR-Ab4; COLR-Ab1, 3, 4, 5
Experimental: Following the incubation period, the microtiter plates were gently washed three times with PBS. Subsequently, 200 µL of methanol (99%) was added to each well and left for 15 min. The methanol was then removed from the wells and the plate was left to dry for approximately 30 min, thus completing the fixation process. Then, 200 µL of 0.1% CV solution was added to each well and incubated for 20 min at room temperature. The plates were washed three times with PBS in order to remove the excess stain, and then 150 μL of 95% ethanol was added to the wells and incubated for 20 min. The optical density of the CV-stained biofilm was measured at a wavelength of 575 nm using a Thermo Labsystem Multiscan Spectrum microtiter plate reader (Thermolabsystem, Chantilly, VA, USA). Each experiment was conducted in triplicate.
In order to evaluate the antibiofilm activity of COL, p-CA, FA, and p-MCA, a 96-well microtiter plate-based CV test was carried out, with minor modifications to the methods previously described by Kırmusaoglu (2019) and Haney et al. (2021). Briefly, bacteria were inoculated into MHB medium containing 0.2% glucose and incubated at 37 °C for 16–20 h. The bacterial suspension, adjusted to 0.5 McFarland using the same medium, was prepared to a final concentration of 5 × 10^5 CFU/mL and inoculated into 96-well flat-bottom microtitre plates. […] Wells containing only medium were used as negative controls (MHB), and wells containing only medium and bacteria were used as growth controls. The plates were then incubated overnight at 35 ± 2 °C in a normal atmosphere. Following incubation, CV staining procedures were carried out in a similar manner to Section 4.4.
The antibiofilm index was calculated using the following formula:% Biofilm Mass = (100 × Sample OD575/Growth Control OD575)

[4] = system: COLR-Ab isolates; assay: Colistin broth disk elution method; type: cell-based, Acinetobacter baumannii; set-up: key to Susceptibility category: Resistant; Intermediate; Susceptible
Experimental: (§1) Five COLR-Ab strains isolated from various clinical specimens were obtained between 2016 and 2017 from the Microbiology Department of the Central Laboratory of Akdeniz University Hospital, Antalya, Turkey. All isolates were isolated from tracheal samples obtained from patients hospitalized in the intensive care unit. The stock solutions of A. baumannii strains were cultivated in blood agar (Becton Dickinson, Franklin Lakes, NJ, USA) at 35 ± 2 °C for 18–24 h. Identification of the colonies was confirmed using Matrix-Assisted Laser Desorption/Ionization Time-of-Flight (MALDI-TOF) mass spectroscopy (Bruker Daltonics, Bremen, Germany). […] The automated system was evaluated according to the criteria of the CLSI. The colistin broth disk elution method was used to test COL sensitivity, and all five isolates selected for the study were resistant to COL. E. coli NCTC 13846 COL was used as a quality control strain in broth dilution method to verify the MIC values. The isolates were stored at −80 °C until use and sub-cultured on blood agar for in vitro testing.

[5] = system: COLR-Ab isolates; assay: Broth microdilution MIC determination (CLSI); type: cell-based, Acinetobacter baumannii
Experimental: The broth microdilution method, as recommended by the CLSI, was used to determine the MIC values of COL, p-CA, FA, and p-MCA [46]. The serial two-fold dilutions of antimicrobial agents were prepared using 96-well microplates with cation-adjusted Mueller-Hinton Broth (MHB) (CAMHB, Merck KGaA, Darmstadt, Germany). Firstly, an initial concentration of 8192 µg/mL was chosen to determine the MIC values of all compounds against COLR-Ab isolates. […] The bacterial suspension was adjusted to the 0.5 McFarland standard and added to each well (final bacterial concentration: 5 × 10^5 colony forming units [CFU]/mL). Additionally, the microdilution plates included controls for bacterial growth (CAMHB + bacteria) and medium sterility (CAMHB). Microdilution plates were incubated at 35 ± 2 °C for 18–24 h. The MIC values were calculated by comparing the growth densities in the antibiotic-containing wells to those in the control wells used in each test set. Each experiment was conducted in triplicate.

[6] = system: Escherichia coli NCTC 13846; assay: Broth microdilution MIC, quality control strain; type: cell-based; settings: E. coli NCTC 13846 quality control strain
Experimental: as §1
The broth microdilution method, as recommended by the CLSI, was used to determine the MIC values of COL, p-CA, FA, and p-MCA [46]. […] The MIC values were calculated by comparing the growth densities in the antibiotic-containing wells to those in the control wells used in each test set. […]

[7] = COLR-Ab1, BD Phoenix 100 system
[8] = COLR-Ab2, BD Phoenix 100 system
[9] = COLR-Ab3, BD Phoenix 100 system
[10] = COLR-Ab4, BD Phoenix 100 system
[11] = COLR-Ab5, BD Phoenix 100 system
[12] = COLR-Ab1, colistin broth disk elution
[13] = COLR-Ab2, colistin broth disk elution
[14] = COLR-Ab3, colistin broth disk elution
[15] = COLR-Ab4, colistin broth disk elution
[16] = COLR-Ab5, colistin broth disk elution

| Compound | MIC [1, 7] [µg/mL] | MIC [1, 8] [µg/mL] | MIC [1, 9] [µg/mL] | MIC [1, 10] [µg/mL] | MIC [1, 11] [µg/mL] | Susceptibility category [1, 7] | Susceptibility category [1, 8] | Susceptibility category [1, 9] | Susceptibility category [1, 10] | Susceptibility category [1, 11] | Combination effect with COL in words [2] | also measured |
| --- | --- | --- | --- | --- | --- | --- | --- | --- | --- | --- | --- | --- |
| NCC[C@H](O)C(=O)N[C@@H]1C[C@H](N)[C@@H](O[C@H]2O[C@H](CN)[C@@H](O)[C@H](O)[C@H]2O)[C@H](O)[C@H]1O[C@H]1O[C@H](CO)[C@@H](O)[C@H](N)[C@H]1O [AMK, Amikacin] | ≤ 4 | > 16 | > 16 | > 16 | > 16 | S | R | R | R | R | – | – |
| O=C(O)/C=C/c1ccc(O)c(O)c1 [caffeic acid] | – | – | – | – | – | – | – | – | – | – | Synergistic activity | – |
| colistin | – | – | – | – | – | – | – | – | – | – | – | Inhibition of biofilm formation [3]: 19.7–75.2%; MIC [4, 12]: > 4 µg/mL; Susceptibility category [4, 12]: R; MIC [4, 13]: > 4 µg/mL; Susceptibility category [4, 13]: R; MIC [4, 14]: > 4 µg/mL; Susceptibility category [4, 14]: R; MIC [4, 15]: > 4 µg/mL; Susceptibility category [4, 15]: R; MIC [4, 16]: > 4 µg/mL; Susceptibility category [4, 16]: R; MIC ([5]; COLR-Ab1): 32 µg/mL; MIC ([5]; COLR-Ab2): 64 µg/mL; MIC ([5]; COLR-Ab3): 64 µg/mL; MIC ([5]; COLR-Ab4): 128 µg/mL; MIC ([5]; COLR-Ab5): 64 µg/mL; MIC [6]: 4 µg/mL |
| CNC(C)C1CCC(N)C(OC2C(N)CC(N)C(OC3OCC(C)(O)C(NC)C3O)C2O)O1 (stereo not shown) [GEN, Gentamicin] | ≤ 1 | > 4 | > 4 | > 4 | > 4 | S | R | R | R | R | – | – |
| O=C(O)c1ccc(O)c(O)c1 [protocatechuic acid] | – | – | – | – | – | – | – | – | – | – | Synergistic activity | – |
| CCN[C@@H]1C[C@H](N)[C@@H](O[C@H]2OC(CN)=CC[C@H]2N)[C@H](O)[C@H]1O[C@H]1OC[C@](C)(O)[C@H](NC)[C@H]1O [NET, Netilmicin] | 1 (≈ 2.1 µM) | > 4 | > 4 | > 4 | > 4 | S | R | R | R | R | – | – |
| O=C(O)c1cc(O)c(O)c(O)c1 [gallic acid] | – | – | – | – | – | – | – | – | – | – | Synergistic activity | – |
| C[C@@H](O)[C@H]1C(=O)N2C(C(=O)O)=C(S[C@@H]3CN[C@H](C(=O)N(C)C)C3)[C@H](C)[C@H]12 [MEM, Meropenem] | ≤ 0.125 | > 8 | > 8 | > 8 | > 8 | S | R | R | R | R | – | – |
| C[C@@H](O)[C@H]1C(=O)N2C(C(=O)O)=C(SCCN=CN)C[C@H]12 [IPM, Imipenem] | ≤ 0.25 | > 8 | 4 (≈ 13.4 µM) | > 8 | > 8 | S | R | I | R | R | – | – |
